Residues, ends and D or L forms follow the SMILES beside them.
What was measured:
[1] = system: Sprague Dawley rats injected with LPS (Salmonella Enteritidis); assay: Survival of rats after intravenous LPS (septic shock test); type: in vivo, rat; conditions: male Sprague Dawley rats, LPS i.v. at dose giving about 30% survival, compound 3 μg/kg i.v. immediately after, monitored 7 days; control (LPS only) 23
Description: Male Sprague Dawley rats (175-200 g, Charles river, Calco, Italy) were intravenously injected with a dose of LPS (Salmonella Enteritidis, Sigma) in 0.2 ml of physiological solution, previously determined on the same batch of animals, as giving about 30% survival. Thereafter they were randomized into groups of at least 18 animals and each immediately inoculated intravenously with 3 μg/kg of some of the compounds representative of the invention. One group of animals was treated with LPS only and considered as the control. The animals were monitored for the following 7 days to determine their survival.

[2] = system: Wistar rats with left coronary artery ligation; assay: Cardioprotective activity following ischemia induced by occlusion of the left coronary artery in the anesthetized rat; type: in vivo; conditions: anesthetized male Wistar rats, 0.1 μg/kg/min i.v., left coronary artery ligated for 30 minutes
Source text: The cardiovascular activity of the compounds of the invention was investigated by means of a test aiming at evaluating the cardioprotective activity following ischemia induced by the occlusion of the left coronary artery in the anestethized rat, performed substantially as described by C. Clark et al. Journ. Exp. Methods, 3, 357, 1980. It is known that the occlusion of the coronary artery causes several events altering the ECG-pattern including, among others, hypoxia, arrhythmias, with eventual death of the laboratory animals.
In this test, male Wistar rats, (350-450 g, Charles River) were divided into groups of at least 18 animals, anestethized with nembutal (65 mg/kg i.p.) and each connected to an electrocardiograph for continuously monitoring the ECG. The animals, maintained under artificial ventilation, underwent thoracotomy and, after incision of the pericardium, a suture thread was passed around the left coronary artery, near to its origins. The animals were then administered intravenously with 0.1 μg/kg/min of the compounds of the invention dissolved in saline. One group of animals (control group) were administered intravenously with saline (5 ml/kg/hr). After 15 minutes recovery, and provided that electocardiographic alteration was not recorded, the left coronary artery was ligated and the ligature was maintained for 30 minutes. During this period the animals were monitored and ventricular tachycardia (VT), ventricular fibrillations (VF) and mortality were7 assessed.

Compound | Survival percentage [1] [%] | Mortality % ([2]; control 29) [%] | Incidence % V.F. (ventricular fibrillations) ([2]; control 86) [%] | Incidence % V.T. (ventricular tachycardia) ([2]; control 100) [%]
CC(C)CN(C(=O)CN)[C@@H](CCCCN)C(=O)N1CCC[C@H]1C(=O)O [Example 9, H-Gly-(isoBut)Lys-Pro-OH.AcOH] | 39 |  |  | 
N=C(N)NCCC[C@H](NC(=O)[C@@H]1CCCN1C(=O)[C@@H]1CCCN1C(=O)CN)C(=O)O [Example 11, H-Gly-Pro-Pro-Arg-OH.AcOH] (H-GPPR-OH) | 57 |  |  | 
CCN[C@@H](CCCCN)C(=O)N1CCC[C@H]1C(=O)O [Example 12, H-(Et)Lys-Pro-OH.AcOH] | 44 | 12 | 75 | 10
H-Gly-(Bzl)Lys-Pro-Arg-OH.2AcOH [Example 10] | 43 |  |  | 
H-Gly-(Et)Lys-Pro-Arg-OH.2AcOH [Example 15] | 33 |  |  | 
H-Gly-(Et)Lys-Pro-Lys-OH.AcOH [Example 14] | 48 |  |  | 

Reference: patent US6342481B1, “Oligopeptides derived from C-reactive protein fragments” (priority 1993, dated 2002)
